This note sets out measurements from US20260183277A1, “ANTIVIRAL PHARMACEUTICAL COMPOSITION COMPRISING ERRy INHIBITOR AS ACTIVE INGREDIENT” (priority 2024, published 2026).

The subject of this experiment is SARS-CoV-2 KCDC03. The class given is cell-based.

For `CC(C)N1CCN(c2ccc(/C(=C(/CCCO)c3ccccc3)c3ccc(O)cc3)cc2)CC1` [DN200434], the “genome replication, progeny production, and protein synthesis of SARS-CoV-2” value is “effectively suppressed”.
